System: CNPase
Assay: CNPase enzyme activity in Ang-II induced cardiac hypertrophy cells
Type: cell-based
Settings: n = 3
Description: The enzyme activity of CNPase in hypertrophic myocardium was detected by the detection method of calf intestinal alkaline phosphatase activity.

C[C@@]12CC[C@@H]3[C@@](CC[C@H]4[C@@]3(C)CCC[C@@]4(C)C(=O)[O-])(CC1=O)C2.[Na+] [STVNa, sodium isosteviol]
CNPase activity (STVNa + Ang II, cardiac hypertrophy induced by Ang-II, Control 1.000, Ang-II alone 0.2266): 0.9629 ± 0.411
CNPase activity (STVNa + Ang II, cardiac hypertrophy induced by Ang-II, Control 1.000, Ang-II alone 0.2266, listed as sodium isosteviol): enhances CNPase activity
CNPase activity (STVNa alone, no Ang-II, Control 1.000): 0.9326 ± 0.241

Reference: patent US20240016769A1, “Method for preparing compound or biological drug enhancing CNPase activity for treating heart diseases” (ZHUHAI YUANZHI HEALTH TECH CO. LTD., priority 2020, published 2024)
